Reference: US10213451B2, “Methods and compounds for modulating the secretion or expression of adhesion proteins or angiopoietins of cells” (PACIFIC ARROW LIMITED, priority 2004, dated 2019)

Tests used:
RMG2 = test: MTT assay RMG2; assay type: cell-based; conditions: Homo sapiens; RMG2, Clear cell
Description: Majority of ovarian cancers arise from the surface epithelium of ovary, most of them belong to the histological subtypes of clear cell and serous carcinoma. We obtained 10 more human ovarian carcinoma cell-lines of these histological subtypes for these studies. The inhibition activity exerted by Xanifolia-Y was determined with MTT assay.

[1] = tested on: swelling of the recto-anus of rats; test: Croton oil induced swelling of the recto-anus (hemorrhoids model); assay type: in vivo, SD rats
Description: SD rats, male, age-matched 7-8 weeks old weighing 163±18 g were in the experiment. The tested animals were allowed to acclimate for a week.
A cotton swab with a diameter of 4 mm soaked with 0.16 mL of inducer (deionized water:pyridine:ethyl ether:6% croton oil/ethyl ether, 1:4:5:10) was applied to the rat's anus for 12 seconds. The final concentration of croton oil was 3%. The edema developed linearly until 7-8 hours after application and the severity of the edema was sustained for more than 24 hours. Twenty-four hours later, recto-anus tissue (approx. 10 mm long) was isolated after the rats were euthanized. The weights of rat body and recto-anus were measured. The recto-anus coefficient (RAC) was calculated using the formula: weight of recto-anus (mg)/body weight (g). RAC=weight of recto-anus (mg)/body weight (g)×100%
The rates were randomly divided into 5 groups: control, positive control and 3 test groups, and each group had 8 rats. The dose for 3 groups of rats are 10, 20 and 40 mg/kg. The dose of 0.5% CMC-Na for control group is the same as the each test group. The tested drug was fed into the stomach on the morning, once a day before the animal modeling for 5 days. The anus suppository was applied to positive control once after the animal modeling (1 mL/100 g). The weights of recto-anus and RACs were calculated, compared with the controls and subject to a student t-test.

[2] = tested on: Fibronectin secretion from bladder carcinoma cells (HTB-9); test: Fibronectin secretion (Western blot), HTB-9 cells; assay type: cell-based, human; conditions: 10 ug/ml
[3] = tested on: Fibronectin cellular content in ES2 cells; test: Cellular contents of Fibronectin and beta-actin (Western blot); assay type: cell-based, human; conditions: 24 hours
Description: Cells: ES2 (human ovarian carcinoma cells) were grew in RPMI 1640 medium. 1.5 million cells were seeded in a T25 flask and grown for 24 hours before drug-treatment. Drug-treatment: Cells cultures were replaced with fresh RPMI medium containing either 2.5 ul of DMSO (as control) [D]; or 10 ug/ml (final concentration) of Xanifolia-Y3 [Y]. After 24 hours, aliquot of culture medium was taken out for Fibronectin determination (Western blot method). The attached cells were suspended in 1 ml of SDS sample buffer (cell-extract).
Western Blot: Spent culture medium (0.6 ml) was mixed with SDS sample buffer (0.2 ml), and the cell-extract was boiled for 3 minutes before loading to SDS gel. Samples (80 ul/lane) were applied to a 6%-10% SDS gel and electrophoresis was conducted with 100 volts for 2 hours. Protein was transferred to a nitrocellulose membrane electrophoretically (30 min at 100 volts). The nitrocellulose blot was blocked with 5% non-fat dry milk in PBS (1-2 hours). The blot was then incubated with the first antibodies (mouse anti-FN, specific to human FN, SIGMA F0916 and mouse anti-beta actin, SIGMA A5316) and second antibody (Anti-mouse IgG AP conjugated, Promega S3721). The immuno-bands were developed with BCIP/NBT color development system (Promega S3771). Determination of Western band intensity: The band-images of Western blot were captured with a digital camera (3-5 pictures were taken per gel) and the intensity of bands was determined using “Image J” software.
FN concentrations were normalized with the cellular beta-Actin concentrations. Fibronectin secreted into medium and inside Y-treated cells were determined and compare to controls (DMSO-treated cells).

[4] = tested on: Angiopoietin 2 (Ang2) in ES2 cells; test: Angiopoietin-2 cellular content (Western blot); assay type: cell-based, human; conditions: low concentration (5, 10 ug/ml), 24 hours
Description: Methods: ES2 (human ovarian carcinoma cells) were grew in RPMI 1640 medium. 4.5 million cells were seeded in a T75 flask and grown for 24 hours before drug-treatment.
Drug-treatment: Cells cultures were treated with 5, 10 and 15 ug/ml (final concentration) of Xanifolia-Y3 [Y3-5, Y3-10, Y3-15]. or DMSO control [D-10]. After 24 hours, cells were suspended in 1 ml of SDS sample buffer (cell-extract). Samples (80 ul/lane) were applied to 10% SDS gel and electrophoresis was conducted with 100 volts for 2 hours. Protein was transferred to a nitrocellulose membrane electrophoretically. The nitrocellulose blot was blocked with 5% non-fat dry milk in PBS. The blot was then incubated with the first antibodies (goat anti-Ang2, SIGMA A0851) and second antibody (donkey anti-goat AP conjugated, Promega V115A). The immuno-bands were developed with BCIP/NBT color development system (Promega S3771).
Drug-treatment: Cells cultures were treated with 5, 10 and 15 ug/ml (final concentration) of Xanifolia-Y3 [Y3-5, Y3-10, Y3-15]. or DMSO control [D-10]. After 24 hours, cells were suspended in 1 ml of SDS sample buffer (cell-extract). Samples (80 ul/lane) were applied to a 10% SDS gel and electrophoresis was conducted with 100 volts for 2 hours. Protein was transferred to a nitrocellulose membrane electrophoretically. The nitrocellulose blot was blocked with 5% non-fat dry milk in PBS. […]

## C/C=C(/C)C(=O)O[C@H]1[C@H](OC(=O)/C(C)=C\C)[C@@]2(CO)C(CC1(C)C)C1=CCC3[C@@]4(C)CC[C@H](O[C@@H]5OC(C(=O)O)[C@@H](O)C(O[C@@H]6O[C@@H](CO)C(O)C6O)C5O[C@@H]5OC(CO)[C@H](O)C(O)C5O)C(C)(C)C4CC[C@@]3(C)[C@]1(C)[C@@H](O)[C@H]2O (stereo partly drawn) [Xanifolia-Y, 3-O-[β-D-galactopyranosyl (1→2)]-α-L-arabinofuranosy (1→3)-β-D-glucuronopyranosyl-21,22-O-diangeloyl-3β, 15α, 16α, 21β, 22α, 28-hexahydroxyolean-12-ene]
RMG2
  IC50: 8.8 µM
[1]; 10 mg/Kg
  RAC: 1.83 ± 0.36
  Reduction rate %: 21.5%
[1]; 10 mg/Kg fed into the stomach once a day for 5 days
  Weight of recto-anus: 4.68 ± 0.77 g
[1]; 20 mg/Kg
  RAC: 1.61 ± 0.24
  Reduction rate %: 30.9%
  Weight of recto-anus: 4.28 ± 0.60 g
[1]; 40 mg/Kg
  RAC: 1.51 ± 0.23
  Reduction rate %: 35.1%
  Weight of recto-anus: 3.97 ± 0.65 g
[2]
  % inhibition of Fibronectin secretion: about 50%
[2]; listed as Y3
  % inhibition of Fibronectin secretion: 51%
[2]; Homo sapiens
  inhibition at 10 µg/mL: 50%
[3]; 10 ug/ml
  cellular beta-actin content: no change
  decrease of Fibronectin cellular content: 70%
[3]; Homo sapiens, ES-2, 10 ug/ml, read-out: Fibronectin cellular content, % of control
  activity at 10 µg/mL: 30%
[4]
  Angiopoietin-2 immuno-band in cell extract: No detectable or minimal immuno-band
